Article PMC3160198 (The Journal of neuroscience : the official journal of the …, 2011)

How the values were obtained:
α1β2 GABAA receptor = α1β2 GABAA receptor (Rattus norvegicus, UniProt P62813+P63138); assay: whole-cell patch clamp in HEK […] cells, potentiation of GABA current; format: cell-based; settings: GABA 1 μM (EC50); pH 7.4; -60 mV; positive modulator
[1] = biological target: homomeric ρ1 GABAC receptor (GABAρ1) (Homo sapiens, UniProt P24046); assay: two-electrode voltage clamp in Xenopus oocytes, potentiation of GABA current; format: cell-based; settings: 3000 µM, GABA 0.3 μM, pH 7.0, -70 mV
homomeric ρ1 GABAC receptor (GABAρ1), sequence (P24046 22-479): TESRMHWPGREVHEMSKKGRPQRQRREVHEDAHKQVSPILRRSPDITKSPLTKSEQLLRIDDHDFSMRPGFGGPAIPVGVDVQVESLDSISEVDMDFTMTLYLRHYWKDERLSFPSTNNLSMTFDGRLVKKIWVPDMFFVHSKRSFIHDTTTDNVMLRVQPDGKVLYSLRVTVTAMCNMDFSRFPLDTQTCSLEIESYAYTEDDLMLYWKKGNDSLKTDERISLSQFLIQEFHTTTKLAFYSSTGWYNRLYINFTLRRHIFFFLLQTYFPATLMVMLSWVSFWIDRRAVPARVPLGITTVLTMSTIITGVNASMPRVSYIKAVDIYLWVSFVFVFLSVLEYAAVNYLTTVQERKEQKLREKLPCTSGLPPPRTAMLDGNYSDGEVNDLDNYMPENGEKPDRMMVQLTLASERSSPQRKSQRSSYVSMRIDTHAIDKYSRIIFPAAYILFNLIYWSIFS

α1β2 GABAA receptor, sequence (P62813 28-455): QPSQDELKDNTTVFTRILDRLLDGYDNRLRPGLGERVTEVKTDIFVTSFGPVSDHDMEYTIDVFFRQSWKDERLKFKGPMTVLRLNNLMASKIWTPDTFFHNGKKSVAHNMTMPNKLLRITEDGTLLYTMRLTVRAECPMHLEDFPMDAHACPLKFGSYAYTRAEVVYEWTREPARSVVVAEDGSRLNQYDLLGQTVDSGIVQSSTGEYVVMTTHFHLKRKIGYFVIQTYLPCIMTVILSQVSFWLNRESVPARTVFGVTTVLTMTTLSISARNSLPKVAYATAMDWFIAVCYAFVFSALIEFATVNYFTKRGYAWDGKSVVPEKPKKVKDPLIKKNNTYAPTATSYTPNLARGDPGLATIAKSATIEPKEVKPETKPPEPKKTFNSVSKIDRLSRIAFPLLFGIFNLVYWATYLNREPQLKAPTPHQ
α1β2 GABAA receptor, sequence (P63138 26-474): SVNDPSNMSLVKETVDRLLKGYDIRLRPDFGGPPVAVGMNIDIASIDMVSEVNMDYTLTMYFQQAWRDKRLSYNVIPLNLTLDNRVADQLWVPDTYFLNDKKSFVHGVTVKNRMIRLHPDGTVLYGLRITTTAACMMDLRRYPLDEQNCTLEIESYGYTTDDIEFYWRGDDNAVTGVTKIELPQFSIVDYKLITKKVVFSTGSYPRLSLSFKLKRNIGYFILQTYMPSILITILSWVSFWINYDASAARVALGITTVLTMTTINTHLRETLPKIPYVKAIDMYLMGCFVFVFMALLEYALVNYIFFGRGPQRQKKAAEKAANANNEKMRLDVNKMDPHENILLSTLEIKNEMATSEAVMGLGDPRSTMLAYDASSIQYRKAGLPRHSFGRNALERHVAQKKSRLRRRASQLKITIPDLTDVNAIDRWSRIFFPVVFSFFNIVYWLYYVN

| % potentiation at 10 mM (α1β2 GABAA receptor) | % Potentiation ([1]; positive allosteric modulator) [%] | % Potentiation [1] [%] | SMILES |
| --- | --- | --- | --- |
| ~ 600% | 139.5 ± 87.5 | – | O=C1O[C@H]([C@@H](O)CO)C(O)=C1O [Asc, Ascorbic acid] |
| – | 33.5 ± 12.5 | – | O=C1O[C@H]([C@H](O)CO)C(O)=C1O [D-isoAsc, D-isoascorbic acid] |
| – | – | -1.6 ± 4.2 | O=C1O[C@H]([C@@H](O)CO)C(=O)C1=O [DHA, L-dehydroascorbic acid] |
